# Measured values taken from ChEMBL document CHEMBL4020796, “Evaluation of guggulsterone derivatives as novel kidney cell protective agents against cisplatin-induced nephrotoxicity” (2017).
# Activity calls are given as the source filed them. The calls are words filed in the database; no cut-off is given here.
# Key:
# [1] = system: LLC-PK1; test: Renoprotective activity in pig LLC-PK1 cells assessed as inhibition of cisplatin-induced oxidative stress by measuring cell viability up to 250 uM after 24 hrs by MTT assay; format: functional, cell-based; conditions: Sus scrofa
# [2] = organism: Sus scrofa; test: Inhibition of cisplatin-induced MAPK p38 phosphorylation in pig LLC-PK1 cells at 10 to 50 uM after 24 hrs by Western blot method; format: cell-based
# [3] = system: LLC-PK1; test: Renoprotective activity in pig LLC-PK1 cells assessed as inhibition of cisplatin-induced oxidative stress by measuring cell viability at 25 uM after 24 hrs by MTT assay relative to control; format: functional, Sus scrofa
# [4] = system: LLC-PK1; test: Renoprotective activity in pig LLC-PK1 cells assessed as inhibition of cisplatin-induced cleaved caspase-3 levels at 10 to 50 uM after 24 hrs by Western blot method; format: functional, cell-based; conditions: Sus scrofa
# [5] = organism: Sus scrofa; test: Inhibition of cisplatin-induced MAPK JNK phosphorylation in pig LLC-PK1 cells at 10 to 50 uM after 24 hrs by Western blot method; format: cell-based
# [6] = system: LLC-PK1; test: Renoprotective activity in pig LLC-PK1 cells assessed as inhibition of cisplatin-induced cytotoxicity by measuring cell viability at 10 to 50 uM by phase contrast microscopic method; format: functional, cell-based; conditions: Sus scrofa
# [7] = system: LLC-PK1; test: Renoprotective activity in pig LLC-PK1 cells assessed as inhibition of cisplatin-induced cell death by measuring cell viability at 50 uM by flow cytometry; format: functional, cell-based; conditions: Sus scrofa
smiles,measurement,setting,value
C/C=C1/[C@@H](n2cc(CCCC#N)nn2)C[C@H]2[C@@H]3CCC4=CC(=O)CC[C@]4(C)[C@H]3CC[C@]12C,inhibition,[1],inactive
C/C=C1/[C@@H](n2cc(CO)nn2)C[C@H]2[C@@H]3CCC4=CC(=O)CC[C@]4(C)[C@H]3CC[C@]12C,inhibition,[2],Active
same,Activity,[3],>90%
same,inhibition,[4],Active
same,inhibition,[5],Active
same,inhibition,[6],Active
same,inhibition,[7],Active
C/C=C1/[C@@H](n2cc(-c3ccc(C)cc3)nn2)C[C@H]2[C@@H]3CCC4=CC(=O)CC[C@]4(C)[C@H]3CC[C@]12C,inhibition,[1],Active
C/C=C1/[C@@H](n2cc(-c3ccc(F)cc3)nn2)C[C@H]2[C@@H]3CCC4=CC(=O)CC[C@]4(C)[C@H]3CC[C@]12C,inhibition,[1],Active
C/C=C1/[C@@H](n2cc(CCCC)nn2)C[C@H]2[C@@H]3CCC4=CC(=O)CC[C@]4(C)[C@H]3CC[C@]12C,inhibition,[1],inactive
C/C=C1/[C@@H](n2cc(-c3ccccc3)nn2)C[C@H]2[C@@H]3CCC4=CC(=O)CC[C@]4(C)[C@H]3CC[C@]12C,inhibition,[1],Active
